One may read the DC50 as the concentration at which degradation of the target reaches its halfway point. The Dmax is the largest share of the target that was removed.

This test concerns the target T1, IRAK4 (Homo sapiens, UniProt Q9NWZ3).
T1 sequence (Q9NWZ3 1-460): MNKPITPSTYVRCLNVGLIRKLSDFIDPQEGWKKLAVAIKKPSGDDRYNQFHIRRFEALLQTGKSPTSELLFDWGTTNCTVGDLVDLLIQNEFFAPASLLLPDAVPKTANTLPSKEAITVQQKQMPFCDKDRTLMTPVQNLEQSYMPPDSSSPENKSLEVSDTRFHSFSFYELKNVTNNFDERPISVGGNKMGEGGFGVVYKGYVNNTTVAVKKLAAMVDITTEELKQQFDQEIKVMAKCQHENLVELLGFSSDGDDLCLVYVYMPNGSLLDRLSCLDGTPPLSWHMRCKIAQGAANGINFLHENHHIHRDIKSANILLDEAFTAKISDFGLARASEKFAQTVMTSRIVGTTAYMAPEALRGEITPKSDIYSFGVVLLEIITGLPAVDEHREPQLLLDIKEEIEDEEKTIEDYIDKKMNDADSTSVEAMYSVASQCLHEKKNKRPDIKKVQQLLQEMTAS
Briefly: Degradation of IRAK4 in THP1 cells, Western blot. It is filed as cell-based. Also noted: Degradation of IRAK4 in THP1 by compound; host or cells: THP-1. The note with it: THP-1 cells, 24 hours of incubation; for DC50: IRAK4 protein by Western blot, read-out: DC50; for Dmax: maximum degradation rate, read-out: Dmax. As for the experimental part:
After 24 hours of incubation, the cells were collected into 1.5 mL centrifuge tubes and centrifuged at 1,000 rpm for 5 minutes. […] The supernatants were collected, and the IRAK4 protein levels were respectively detected by Western blot (WB). The total protein concentration in the cell lysate supernatant was determined using a BCA protein quantification kit (NCM). Based on the total protein concentration detected by BCA, the samples were adjusted to 2 μg/μL using cell lysis buffer and 5×SDS-PAGE protein loading buffer (Beyotime), heated at 95°C for 5 minutes in a metal bath, and then placed on ice for an ice bath for 5 minutes before being used as the loading samples for Western blot analysis. Protein electrophoresis was performed using a 10% SDS-PAGE gel with a loading volume of 20 μL (total protein 40 μg) and Tris-SDS electrophoresis at a constant voltage of 80 V. After electrophoresis, the proteins on the gel were transferred to a 0.2 μm PVDF membrane (Immobilon) using a semi-dry transfer method at 0.5 A and 20 V for 60 minutes. After transfer, the membrane was placed in 5% skimmed milk and incubated at rt for 2 hours. After blocking, the PVDF membrane was incubated with primary antibody against IRAK4 (Abcam) at 4°C overnight. […] The color development and protein band imaging were performed using a chemiluminescence imaging system ([…] Technology Co., Ltd.). The protein bands were analyzed for grayscale values using Image J analysis software. The corrected grayscale values for each sample were calculated and then compared with those of the control group treated with DMSO alone to calculate the degradation rate.

Structures can show the parent of a compound that is named as a salt.

On to `CC(C)(O)c1nn(-c2ccc(N3CCN(C4CCN(c5ccc(C(=O)NC6CCC(=O)NC6=O)cc5F)CC4)CC3)cc2)cc1NC(=O)c1cccc(C(F)(F)F)n1` (centres unmarked) [Compound A443, N-(1-(4-(4-(1-(4-((2,6-dioxopiperidin-3-yl)carbamoyl)-2-fluorophenyl)piperidin-4-yl)piperazin-1-yl)phenyl)-3-(2-hydroxypropan-2-yl)-1H-pyrazol-4-yl)-6-(trifluoromethyl)picolinamide], for which the DC50 was below 100 nM and the Dmax is above 60%.
Taken in the same sequence, the figures for `CC(C)(O)c1nn(-c2ccc(N3CCN(CCC4CCN(C(=O)c5ccc(F)c(N6CCC(=O)NC6=O)c5)CC4)CC3)cc2)cc1NC(=O)c1cccc(C(F)(F)F)n1` [Compound A453, N-(1-(4-(4-(2-(1-(3-(2,4-Dioxotetrahydropyrimidin-1(2H)-yl)-4-fluorobenzoyl)piperidin-4-yl)ethyl)piperazin-1-yl)phenyl)-3-(2-hydroxypropan-2-yl)-1H-pyrazol-4-yl)-6-(trifluoromethyl)picolinamide] were below 100 nM and above 60%.
Taken in the same sequence, the figures for `Cn1c(=O)n(C2CCC(=O)NC2=O)c2cccc(N3CCC(CN4CCN(c5ccc(-n6cc(NC(=O)c7cccc(C(F)(F)F)n7)c(C(=O)NC7CC7)n6)cc5)CC4)CC3)c21` (centres unmarked) [Compound A369, N-{3-[(cyclopropylamino)carbonyl]-1-{4-[4-({1-[1-(2,6-dioxopiperidin-3-yl)-3-methyl-2-oxobenzo[d]imidazol-4-yl]piperidin-4-yl}methyl)piperazin-1-yl]phenyl}pyrazol-4-yl}-6-(trifluoromethyl)pyridine-2-carboxamide formate] were below 100 nM and above 60%.
Taken in the same sequence, the figures for `NS(=O)(=O)c1nn(-c2ccc(N3CCN(CC4CCN(c5ccc(NC6CCC(=O)NC6=O)cc5F)CC4)CC3)cc2)cc1NC(=O)c1cccc(-c2ccn[nH]2)n1` (centres unmarked) [Compound A325, N-(1-(4-(4-((1-(-4-((2,6-dioxopiperidin-3-yl)amino)-2-fluorophenyl)piperidin-4-yl)methyl)piperazin-1-yl)phenyl)-3-sulfamoyl-1H-pyrazol-4-yl)-6-(1H-pyrazol-5-yl)picolinamide] were below 100 nM and above 60%.
In the case of `CN(CCN1CC2CN(c3cccc4c3n(C)c(=O)n4C3CCC(=O)NC3=O)CC2C1)Cc1ccc(-n2cc(NC(=O)c3cccc(-c4ccn[nH]4)n3)c(S(N)(=O)=O)n2)cc1` (centres unmarked) [Compound A337, N-(1-(4-(((2-(5-(1-(2,6-Dioxopiperidin-3-yl)-3-methyl-2-oxo-2,3-dihydro-1H-benzo[d]imidazol-4-yl)hexahydropyrrolo[3,4-c]pyrrol-2(1H)-yl)ethyl)(methyl)amino)methyl)phenyl)-3-sulfamoyl-1H-pyrazol-4-yl)-6-(1H-pyrazol-5-yl)picolinamide], the DC50 was below 100 nM and the Dmax was above 60%.
Taken in the same sequence, the figures for `Cn1c(=O)n(C2CCC(=O)NC2=O)c2cccc(NCCN3CC4(C3)CN(Cc3ccc(-n5cc(NC(=O)c6cccc(-c7ccn[nH]7)n6)c(S(N)(=O)=O)n5)cc3)C4)c21` (centres unmarked) [Compound A334] were below 100 nM and above 60%.
Taken in the same sequence, the figures for `NC(=O)c1cn(-c2ccc(N3CCN(CC4CCN(c5ccc(NC6CCC(=O)NC6=O)cc5F)CC4)CC3)cc2)cc1NC(=O)c1cccc(C(F)(F)F)n1` (centres unmarked) [Compound A427, N-(4-Carbamoyl-1-(4-(4-((1-(4-((2,6-Dioxopiperidin-3-yl)amino)-2-fluorophenyl)piperidin-4-yl)methyl)piperazin-1-yl)phenyl)-1H-pyrrol-3-yl)-6-(trifluoromethyl)picolinamide] were below 100 nM and above 60%.
Taken in the same sequence, the figures for `NC(=O)c1nn(C23CC(N4CCN(C5CCN(c6ccc(NC7CCC(=O)NC7=O)cc6F)CC5)CC4)(C2)C3)cc1NC(=O)c1cccc(C(F)(F)F)n1` (centres unmarked) [Compound A451, N-(3-Carbamoyl-1-(3-(4-(1-(4-((2,6-Dioxopiperidin-3-yl)amino)-2-fluorophenyl)piperidin-4-yl)piperazin-1-yl)bicyclo[1.1.1]pentan-1-yl)-1H-pyrazol-4-yl)-6-(trifluoromethyl)picolinamide] were below 100 nM and above 60%.
With `NC(=O)c1nn(-c2ccc(N3CCN(C(=O)C4CCN(c5cc(F)c(C6CCC(=O)NC6=O)c(F)c5)C4)CC3)cc2)cc1NC(=O)c1cccc(C(F)(F)F)n1` (centres unmarked) [Compound A414], the DC50 was below 100 nM and the Dmax was above 60%.
Taken in the same sequence, the figures for `NC(=O)c1nn(-c2ccc(N3CCN(C4CCN(c5ccc(C(=O)NC6CCC(=O)NC6=O)cc5F)CC4)CC3)cc2)cc1NC(=O)c1cccc(C(F)(F)F)n1` (centres unmarked) [Compound A378, 1-(4-{4-[1-(4-{[(2,6-Dioxopiperidin-3-yl)amino]carbonyl}-2-fluorophenyl)piperidin-4-yl]piperazin-1-yl}phenyl)-4-({[6-(trifluoromethyl)pyridin-2-yl]carbonyl}amino)pyrazole-3-carboxamide] were below 100 nM and above 60%.
Taken in the same sequence, the figures for `Cn1c(=O)n(C2CCC(=O)NC2=O)c2cccc(NCCN3CCC4(CCN(C(=O)c5ccc(-n6cc(NC(=O)c7cccc(-c8ccn[nH]8)n7)c(S(N)(=O)=O)n6)cc5)C4)C3)c21` (centres unmarked) [Compound A333] were below 100 nM and above 60%.
Take `NC(=O)c1cn(-c2ccc(N3CCN(C4CCN(c5ccc(NC6CCC(=O)NC6=O)cc5F)CC4)CC3)cc2)cc1NC(=O)c1cccc(C(F)(F)F)n1` (centres unmarked) [Compound A428, N-(4-Carbamoyl-1-(4-(4-(1-(4-((2,6-Dioxopiperidin-3-yl)amino)-2-fluorophenyl)piperidin-4-yl)piperazin-1-yl)phenyl)-1H-pyrrol-3-yl)-6-(trifluoromethyl)picolinamide]: the DC50 was below 100 nM and the Dmax was above 60%.
Taken in the same sequence, the figures for `CC(C)(O)c1nn(-c2ccc(N3CCN(CC4CCN(c5ccc(NC6CCC(=O)NC6=O)cc5F)CC4)CC3)cc2)cc1NC(=O)c1cccc(C(F)(F)F)n1` (centres unmarked) [Compound A434, N-(1-(4-(4-((1-(4-((2,6-Dioxopiperidin-3-yl)amino)-2-fluorophenyl)piperidin-4-yl)methyl)piperazin-1-yl)phenyl)-3-(2-hydroxypropan-2-yl)-1H-pyrazol-4-yl)-6-(trifluoromethyl)picolinamide] were below 100 nM and above 60%.
Take `NC(=O)c1nn(-c2ccc(N3CCN(C4CCN(c5ccc(OC6CCC(=O)NC6=O)cc5F)CC4)CC3)cc2)cc1NC(=O)c1cccc(C(F)(F)F)n1` (centres unmarked) [Compound A430, N-(3-Carbamoyl-1-(4-(4-(1-(4-((2,6-dioxopiperidin-3-yl)oxy)-2-fluorophenyl)piperidin-4-yl)piperazin-1-yl)phenyl)-1H-pyrazol-4-yl)-6-(trifluoromethyl)picolinamide]: the DC50 was below 100 nM and the Dmax was above 60%.
Regarding `Cn1c(=O)n(C2CCC(=O)NC2=O)c2cccc(N3CCC(CCN4CCN(c5ccc(-n6cc(NC(=O)c7cccc(-c8ccn[nH]8)n7)c(S(N)(=O)=O)n6)cc5)CC4)CC3)c21` (centres unmarked) [Compound A350, N-(1-(4-(4-(2-(1-(1-(2,6-Dioxopiperidin-3-yl)-3-methyl-2-oxo-2,3-dihydro-1H-benzo[d]imidazol-4-yl)piperidin-4-yl)ethyl)piperazin-1-yl)phenyl)-3-sulfamoyl-1H-pyrazol-4-yl)-6-(1H-pyrazol-5-yl)picolinamide], the DC50 is below 100 nM and the Dmax was above 60%.
Taken in the same sequence, the figures for `Cn1c(=O)n(C2CCC(=O)NC2=O)c2cccc(N3CCC4(CCN(CCNC(=O)c5ccc(-n6cc(NC(=O)c7cccc(-c8ccn[nH]8)n7)c(S(N)(=O)=O)n6)cc5)C4)C3)c21` (centres unmarked) [Compound A341, N-(1-(4-((2-(7-(1-(2,6-Dioxopiperidin-3-yl)-3-methyl-2-oxo-2,3-dihydro-1H-benzo[d]imidazol-4-yl)-2,7-diazaspiro[4.4]nonan-2-yl)ethyl)carbamoyl)phenyl)-3-sulfamoyl-1H-pyrazol-4-yl)-6-(1H-pyrazol-5-yl)picolinamide formate] were below 100 nM and above 60%.

Source of the values: patent publication EP4763839A1 (Pamplona Therapeutics (Shenzhen) Co., Ltd., priority 2023, dated 2025).
